From PubChem BioAssay AID330 (DTP/NCI, 2004)
Where “and” joins values, the source holds several entries; their conditions need not be identical. Identical values can stand only once. Toxic doses and inconclusive results are not listed. Square brackets hold non-standard residues; d marks the D form. Peptide text beside a SMILES is read from it. * marks the point of attachment. ξ: configuration not given here. Cbz = O=C(OCc1ccccc1)*; ξNva = CCCC(N)C(=O)O

Tested on: P388 leukemia ip, CD2F1 mice, survival T/C
Assay: NCI In Vivo Anticancer Drug Screen. Data for tumor model P388 Leukemia (intraperitoneal) in CD2F1 (CDF1) mice
Conditions: endpoint: median survival time, higher = longer survival
Summary of the method: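 Mice carrying the transplanted tumor received test compound or vehicle. Survival was recorded in each group, and the value is the treated-group measurement divided by that of the vehicle-treated control group.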

[1] = dose: 50.0 mg/kg/injection, schedule: Q01DX009 (ip), vehicle: saline with Tween-80
[2] = dose: 100.0 mg/kg/injection, schedule: Q01DX009 (ip), vehicle: saline with Tween-80
[3] = dose: 200.0 mg/kg/injection, schedule: Q01DX009 (ip), vehicle: saline with Tween-80
[4] = dose: 50.0 mg/kg/injection, schedule: Q01DX005 (ip), vehicle: Klucel (hydroxypropylcellulose) (HPC)
[5] = dose: 100.0 mg/kg/injection, schedule: Q01DX005 (ip), vehicle: Klucel (hydroxypropylcellulose) (HPC)
[6] = dose: 200.0 mg/kg/injection, schedule: Q01DX005 (ip), vehicle: Klucel (hydroxypropylcellulose) (HPC)
[7] = dose: 60.0 mg/kg/injection, schedule: Q01DX005 (ip), vehicle: Klucel (hydroxypropylcellulose) (HPC)
[8] = dose: 120.0 mg/kg/injection, schedule: Q01DX005 (ip), vehicle: Klucel (hydroxypropylcellulose) (HPC)
[9] = dose: 240.0 mg/kg/injection, schedule: Q01DX005 (ip), vehicle: Klucel (hydroxypropylcellulose) (HPC)
[10] = dose: 100.0 mg/kg/injection, schedule: Q01DX001 (ip), vehicle: Klucel (hydroxypropylcellulose) (HPC)
[11] = dose: 200.0 mg/kg/injection, schedule: Q01DX001 (ip), vehicle: Klucel (hydroxypropylcellulose) (HPC)
[12] = dose: 60.0 mg/kg/injection, schedule: Q01DX005 (ip), vehicle: saline with Tween-80
[13] = dose: 120.0 mg/kg/injection, schedule: Q01DX005 (ip), vehicle: saline with Tween-80
[14] = dose: 240.0 mg/kg/injection, schedule: Q01DX005 (ip), vehicle: saline with Tween-80

With `CN(C)c1cccc2c(S(=O)(=O)Cl)cccc12` the T/C (dose: 25.0 mg/kg/injection, schedule: Q04DX003 (ip), vehicle: saline with Tween-80) was 106 % of control, the T/C (dose: 50.0 mg/kg/injection, schedule: Q04DX003 (ip), vehicle: saline with Tween-80) was 114 % of control and the T/C (dose: 100.0 mg/kg/injection, schedule: Q04DX003 (ip), vehicle: saline with Tween-80) was 110 % of control. For the same molecule, the T/C (dose: 200.0 mg/kg/injection, schedule: Q04DX003 (ip), vehicle: saline with Tween-80) was 124 % of control.
For `NNc1ccc2cccc([N+](=O)[O-])c2n1`, the T/C (dose: 25.0 mg/kg/injection, schedule: Q01DX009 (ip), vehicle: other) was 106 % of control, the T/C (dose: 50.0 mg/kg/injection, schedule: Q01DX009 (ip), vehicle: other) was 100 % of control and the T/C (dose: 100.0 mg/kg/injection, schedule: Q01DX009 (ip), vehicle: other) was 100 % of control.
`COc1cc([C@@H]2c3cc4c(c(O)c3C[C@H]3COC(=O)[C@@H]32)OCO4)cc(OC)c1OC` was tested, and the T/C (dose: 0.12 mg/kg/injection, schedule: Q01DX009 (ip), vehicle: saline) was 113 % of control, the T/C (dose: 0.12 mg/kg/injection, schedule: Q01DX009 (ip), vehicle: suspension in saline) was 111 % of control and the T/C (dose: 0.25 mg/kg/injection, schedule: Q01DX009 (ip), vehicle: saline) was 119 % of control. The T/C (dose: 0.25 mg/kg/injection, schedule: Q01DX009 (ip), vehicle: suspension in saline) was 119 % of control and the T/C (dose: 0.5 mg/kg/injection, schedule: Q01DX009 (ip), vehicle: saline) was 124 % of control.
In the case of `N#Cc1c(N)nc2c(c1N)CC(CCl)O2` (stereo not drawn), the T/C [1] was 94 % of control, the T/C [2] was 96 % of control and the T/C [3] was 87 % of control.
In the case of `O=C(C[n+]1ccnc2ccccc21)c1ccc(Cl)cc1`, the T/C [4] was 95 % of control, the T/C [5] was 100 % of control and the T/C [6] was 106 % of control.
For `COC(=O)C1=C(C(=O)OC)SC(=C2C3=C(SC(C(=O)OC)=C(C(=O)OC)S3)c3ccccc32)S1`, the T/C (dose: 30.0 mg/kg/injection, schedule: Q01DX005 (ip), vehicle: Klucel (hydroxypropylcellulose) (HPC)) was 96 % of control, the T/C [7] was 87 % of control and 91 % of control and the T/C [8] was 89 % of control. The T/C [9] was 86 % of control.
`CCCC(NC(=O)OCc1ccccc1)C(=O)NCC(=O)NCC(=O)OC` (stereo not drawn) (Cbz-[ξNva]-Gly-Gly-OMe) was tested, and the T/C [4] was 110 % of control, the T/C [5] was 113 % of control and the T/C [6] was 113 % of control.
In the case of `NC(=O)c1cc(C(Cl)Cl)ccn1`, the T/C [7] was 100 % of control, the T/C [8] was 99 % of control and the T/C [9] was 93 % of control.
With `c1ccc(CC[n+]2ccccc2)cc1` the T/C (dose: 12.5 mg/kg/injection, schedule: Q01DX009 (ip), vehicle: saline) was 88 % of control and the T/C (dose: 25.0 mg/kg/injection, schedule: Q01DX009 (ip), vehicle: saline) was 87 % of control.
With `CCn1c(Cl)c(/C=C(/NC(=O)c2ccccc2)C(=O)O)c2ccccc21` the T/C [10] was 100 % of control, the T/C [11] was 94 % of control and the T/C (dose: 400.0 mg/kg/injection, schedule: Q01DX001 (ip), vehicle: Klucel (hydroxypropylcellulose) (HPC)) was 94 % of control.
In the case of `CC(/C=C/C1OC(=O)C=CC1C)=C\C(C)C/C=C/C(C)=C/C(CO)C(=O)C(C)C(O)C(C)C/C(C)=C/C(=O)O` (stereo not drawn), the T/C (dose: 25.0 micrograms/kg/injection, schedule: Q01DX005 (ip), vehicle: other) was 119 % of control and the T/C (dose: 100.0 micrograms/kg/injection, schedule: Q01DX005 (ip), vehicle: other) was 153 % of control.
In the case of `O=NNc1ncnc2c1ncn2Cc1ccccc1`, the T/C (dose: 3.12 mg/kg/injection, schedule: Q01DX009 (ip), vehicle: water) was 103 % of control, the T/C (dose: 6.25 mg/kg/injection, schedule: Q01DX009 (ip), vehicle: water) was 100 % of control and the T/C (dose: 12.5 mg/kg/injection, schedule: Q01DX009 (ip), vehicle: water) was 112 % of control. The T/C (dose: 25.0 mg/kg/injection, schedule: Q01DX009 (ip), vehicle: water) was 112 % of control and the T/C (dose: 50.0 mg/kg/injection, schedule: Q01DX009 (ip), vehicle: water) was 112 % of control.
`O=S1(=O)CC(N2CCCCC2)C2=C(O1)c1ccccc1N(c1ccccc1)C2` (stereo not drawn) was tested, and the T/C [1] was 97 % of control, the T/C [2] was 96 % of control and the T/C [3] was 97 % of control.
`Oc1c(-c2ccccc2)nc2cnccn12` was tested, and the T/C [12] was 100 % of control, the T/C [13] was 107 % of control and the T/C [14] was 107 % of control.
`CCOc1cc2c(cc1C(CC)c1ccc(O)cc1)OCO2` (stereo not drawn) was tested, and the T/C (dose: 50.0 mg/kg/injection, schedule: Q01DX005 (ip), vehicle: distilled water + Tween-80) was 93 % of control, the T/C (dose: 100.0 mg/kg/injection, schedule: Q01DX005 (ip), vehicle: distilled water + Tween-80) was 93 % of control and the T/C (dose: 200.0 mg/kg/injection, schedule: Q01DX005 (ip), vehicle: distilled water + Tween-80) was 96 % of control.
For `O=C1C=CC2(CC=CCC2)CC1` (stereo not drawn), the T/C (dose: 6.25 mg/kg/injection, schedule: Q01DX009 (ip), vehicle: Klucel (hydroxypropylcellulose) (HPC)) was 110 % of control, the T/C (dose: 12.5 mg/kg/injection, schedule: Q01DX008 (ip), vehicle: Klucel (hydroxypropylcellulose) (HPC)) was 101 % of control and the T/C (dose: 12.5 mg/kg/injection, schedule: Q01DX009 (ip), vehicle: Klucel (hydroxypropylcellulose) (HPC)) was 108 % of control. For the same molecule, the T/C (dose: 25.0 mg/kg/injection, schedule: Q01DX008 (ip), vehicle: Klucel (hydroxypropylcellulose) (HPC)) was 100 % of control, the T/C (dose: 25.0 mg/kg/injection, schedule: Q01DX009 (ip), vehicle: Klucel (hydroxypropylcellulose) (HPC)) was 100 % of control and the T/C (dose: 50.0 mg/kg/injection, schedule: Q01DX009 (ip), vehicle: Klucel (hydroxypropylcellulose) (HPC)) was 121 % of control. The T/C (dose: 100.0 mg/kg/injection, schedule: Q01DX009 (ip), vehicle: Klucel (hydroxypropylcellulose) (HPC)) was 109 % of control and the T/C (dose: 200.0 mg/kg/injection, schedule: Q01DX009 (ip), vehicle: Klucel (hydroxypropylcellulose) (HPC)) was 110 % of control.
`COc1cccc(C2c3cc4c(cc3OC(C)(N3CCCC3)C2C)OCO4)c1O` (stereo not drawn) was tested, and the T/C [12] was 99 % of control, the T/C [13] was 102 % of control and the T/C [14] was 89 % of control.
With `CC(C)(C)N(OC(=O)c1ccc(Cl)cc1)c1ccccc1` the T/C (dose: 25.0 mg/kg/injection, schedule: Q01DX009 (ip), vehicle: saline with Tween-80) was 99 % of control and the T/C [1] was 99 % of control.
For `CN(C)c1ccc2nc(/C=N/NC(N)=S)ccc2c1`, the T/C (dose: 100.0 mg/kg/injection, schedule: Q04DX002 (ip), vehicle: distilled water + Tween-80 + alcohol) was 101 % of control and the T/C (dose: 200.0 mg/kg/injection, schedule: Q04DX002 (ip), vehicle: distilled water + Tween-80 + alcohol) was 92 % of control.
For `COC(=O)C[N+](C)(C)Cc1ccccc1`, the T/C (dose: 50.0 mg/kg/injection, schedule: Q01DX009 (ip), vehicle: DMSO) was 97 % of control and the T/C (dose: 100.0 mg/kg/injection, schedule: Q01DX009 (ip), vehicle: DMSO) was 99 % of control.
`OCc1cnccc1Br` was tested, and the T/C (dose: 60.0 mg/kg/injection, schedule: Q01DX005 (ip), vehicle: saline) was 99 % of control, the T/C (dose: 120.0 mg/kg/injection, schedule: Q01DX005 (ip), vehicle: saline) was 100 % of control and the T/C (dose: 240.0 mg/kg/injection, schedule: Q01DX005 (ip), vehicle: saline) was 99 % of control.
`C[C@]12CCC[C@@H](O)[C@H]1O2` was tested, and the T/C (dose: 100.0 mg/kg/injection, schedule: Q04DX003 (ip), vehicle: saline) was 104 % of control, the T/C (dose: 200.0 mg/kg/injection, schedule: Q04DX003 (ip), vehicle: saline) was 103 % of control and the T/C (dose: 400.0 mg/kg/injection, schedule: Q04DX003 (ip), vehicle: saline) was 109 % of control.
In the case of `Nc1ccc(O)c2c1C(=O)c1ccccc1C2=O`, the T/C (dose: 50.0 mg/kg/injection, schedule: Q01DX005 (ip), vehicle: saline with Tween-80) was 93 % of control, the T/C (dose: 100.0 mg/kg/injection, schedule: Q01DX005 (ip), vehicle: saline with Tween-80) was 111 % of control and the T/C (dose: 200.0 mg/kg/injection, schedule: Q01DX005 (ip), vehicle: saline with Tween-80) was 101 % of control.
For `NC(=S)c1ccc(N=Cc2ccc(Cl)cc2)cc1`, the T/C (dose: 50.0 mg/kg/injection, schedule: Q01DX001 (ip), vehicle: Klucel (hydroxypropylcellulose) (HPC)) was 97 % of control, the T/C [10] was 100 % of control and the T/C [11] was 102 % of control.
